The values below come from publication PMC7731220, “Pharmacophore Modeling and 3D-QSAR Study of Indole and Isatin Derivatives as Antiamyloidogenic Agents Targeting Alzheimer’s Disease” (Molecules, 2020).

Where two headings read alike, the source gives them in different places.

One experiment has as its target T1, tau protein (Homo sapiens, UniProt P10636).
T1 construct: inclusions bodies (IBs) formed by tau full-length protein in bacteria; expressed in transfected cells; host or cells: Escherichia coli BL21 (DE3), plasmids pTARA and pRKT42
The experiment in a line: Tau aggregation inhibition assay in bacterial cells (thioflavin S fluorescence). As to conditions: for inhibition at 10 µM: cell-based assay. In kind it is cell-based, Escherichia coli BL21 (DE3). From the text:
The deposition of aggregates of hyperphosphorylated tau protein constitutes the intracellular neurofibrillary tangles, a major histological evidence of AD. The role of tau hyperphosphorylation and aggregation in AD has established both of them as a target for therapeutic intervention, although only N,N,N′,N′-tetramethyl-10H-phenothiazine-3,7-diaminium (TRX0237, leucomethyl-thioninium), the reduced form of methylene blue dye, acting as an inhibitor of tau aggregation, has reached the clinical phase III [26]. In recent years, some of us developed an efficient cell-based assay of tau aggregation, a simple and inexpensive method that provides a straightforward assay to evaluate the putative anti-aggregation capacity of small molecules. This method relies on the use of bacteria overexpressing amyloid-prone proteins to monitor the amyloid aggregation, thus constituting a physiologically relevant model. In particular, it exploits amyloid properties of the inclusions bodies (IBs) formed by tau full-length protein in bacteria stained by thioflavin S (ThS), a specific amyloid dye, to address the bacterial amyloid aggregation and the effect of anti-amyloid compounds in this polymerization process.
Escherichia coli competent cells BL21 (DE3) were transformed with pTARA containing the RNA-polymerase gen of T7 phage (T7RP) under the control of the promoter PBAD and pRKT42 vector encoding four repeats of tau protein in two inserts. Because of the addition of the initiation codon ATG in front of gene, the over-expressed protein contains an additional methionine residue at its N terminus. Tau anti-aggregating activities of the target compounds were assessed in E. coli cells, as previously described. M9 minimal medium (10 mL) containing 0.5% of glucose, 100 μg/mL of ampicillin and 12.5 μg/mL of chloramphenicol was inoculated with a colony of BL21 (DE3) cells bearing the plasmids. To fresh M9 minimal medium containing 0.5% of glucose, 50 μg/mL of ampicillin, 12.5 μg/mL of chloramphenicol, and 250 µM of ThS, the volume of overnight culture necessary to get a 1:500 dilution was added. The cultures were grown at 37 °C and 250 rpm overnight until cell density reached OD600 = 0.6. A volume of 980 μL of the cultures was transferred into 1.5 mL Eppendorf tubes that contained 10 μL of a solution of the target compound in DMSO and 10 μL of arabinose at 25%, leading to a final inhibitor concentration of 10 μM. The resulting cultures were grown at 37 °C and 1400 rpm with a Thermomixer (Eppendorf, Hamburg, Germany) overnight. The same amount of DMSO without the target compound was added to the sample as a negative control (maximal amount of tau), whereas non-induced samples (in the absence of arabinose) were prepared as positive controls (absence of tau), and to assess the potential intrinsic toxicity of the target compounds. In addition, the absorbance at 600 nm of these samples was assessed to confirm the correct bacterial growth, discarding potential intrinsic toxicity of compounds. To determine the IC50 values, the same protocol was followed but only modifying the initial concentration of compounds. In order to use different final concentrations of compound, we performed a dilutions banc from a stock solution of 100 mM in […].
ThS fluorescence and absorbance were tracked using a DTX 800 plate reader Multimode Detector equipped with a Multimode Analysis Software (Beckman-Coulter, Indianapolis, IN, USA). Filters of 430/35 and 485/20 nm were used for the excitation and emission wavelengths, respectively. 535/25 nm filters were also used for the absorbance determination. It should be stressed that ThS fluorescence normalization was carried out considering as 100% the ThS fluorescence of the bacterial cells expressing tau in the absence of compounds and 0% the ThS fluorescence of the bacterial cells non-expressing tau.

Experiment [1] concerns the target T2, Aβ40 (Homo sapiens, UniProt P05067). As to the kind of experiment: Inhibition of Aβ40 self-aggregation (thioflavin T fluorescence, 2% HFIP). As to conditions: for inhibition at 100 µM: read-out: Aβ40 Aggregation Inhibition % at 100 μM.
Method: All the newly prepared compounds were tested in a routine in vitro assay of inhibition of Aβ40 self-aggregation [25].
(§1) All assays were performed in 96-well plates (Greiner Bio-One, Kremsmünster, Austria) using an Infinite M1000 Pro plate reader (Tecan, Cernusco s.N., Italy). Inhibition data were obtained as mean ± SD (for single concentration points) or mean ± SEM from three independent experiments (for IC50s), using Prism (GraphPad Prism version 5.00 for Windows, GraphPad Software, San Diego, CA, USA).
Assay of aggregation of Aβ40 (EzBiolab, Carmel, IN, USA) was performed as described [25], using 2% of 1,1,1,3,3,3-hexafluoro-2-propanol as aggregation enhancer and spectrofluorimetric detection of thioflavin T fluorescence as the probe of amyloid aggregation.
Experiment [2] concerns the target T3, human recombinant monoamine oxidase B (Homo sapiens, UniProt P27338).
T3 construct: purchased Sigma Aldrich; host or cells: baculovirus infected insect cells (microsomes)
T3 sequence (P27338 1-520): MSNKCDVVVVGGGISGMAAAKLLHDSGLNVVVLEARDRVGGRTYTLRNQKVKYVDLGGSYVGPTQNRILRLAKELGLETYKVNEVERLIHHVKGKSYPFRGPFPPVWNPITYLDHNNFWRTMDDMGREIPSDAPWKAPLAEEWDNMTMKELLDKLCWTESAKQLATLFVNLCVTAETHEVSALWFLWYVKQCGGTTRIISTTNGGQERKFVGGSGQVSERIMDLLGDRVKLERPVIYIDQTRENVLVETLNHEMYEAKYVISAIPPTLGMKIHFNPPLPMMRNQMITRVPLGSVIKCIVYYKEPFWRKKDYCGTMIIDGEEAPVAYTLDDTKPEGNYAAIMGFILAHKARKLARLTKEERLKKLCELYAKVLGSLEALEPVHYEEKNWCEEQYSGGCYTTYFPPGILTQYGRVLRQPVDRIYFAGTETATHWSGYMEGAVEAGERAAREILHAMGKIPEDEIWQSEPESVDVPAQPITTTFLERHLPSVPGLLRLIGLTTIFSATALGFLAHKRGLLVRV
As to the kind of experiment: Inhibition of monoamine oxidase B (kynuramine). The note with it: for IC50: read-out: hMAO B IC50; for inhibition at 10 µM: read-out: hMAO B % Inhib. at 10 μM. The experiment is classed as biochemical.
Method: as §1
(§2) Inhibition of human recombinant monoamine oxidases A (250 U/mg) and B (59 U/mg; microsomes from baculovirus infected insect cells; Sigma Aldrich) was determined as already described [48], measuring the fluorescence of 4-hydroxyquinoline produced by the oxidative deamination of substrate kynuramine.

The next experiment deals with T4, human recombinant AChE (Homo sapiens, UniProt P22303).
T4 construct: purchased Sigma Aldrich
T4 sequence (P22303 32-614): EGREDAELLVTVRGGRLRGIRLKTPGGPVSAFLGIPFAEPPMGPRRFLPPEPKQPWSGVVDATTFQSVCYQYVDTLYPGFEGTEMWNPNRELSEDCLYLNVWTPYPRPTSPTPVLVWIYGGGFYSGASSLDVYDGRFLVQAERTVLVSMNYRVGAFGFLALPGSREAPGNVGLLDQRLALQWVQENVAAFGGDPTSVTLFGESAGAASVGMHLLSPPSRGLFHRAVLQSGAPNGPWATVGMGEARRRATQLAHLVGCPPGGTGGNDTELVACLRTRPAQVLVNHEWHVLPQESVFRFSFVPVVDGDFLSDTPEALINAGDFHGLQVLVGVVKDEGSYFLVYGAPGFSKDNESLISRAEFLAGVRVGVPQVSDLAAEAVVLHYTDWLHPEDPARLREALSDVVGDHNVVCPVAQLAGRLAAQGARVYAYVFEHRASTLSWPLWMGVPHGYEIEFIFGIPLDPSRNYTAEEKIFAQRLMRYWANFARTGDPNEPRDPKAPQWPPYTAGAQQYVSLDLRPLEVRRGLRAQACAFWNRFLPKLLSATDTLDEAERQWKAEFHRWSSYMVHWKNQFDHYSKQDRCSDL
As to the kind of experiment: biochemical. As to conditions: for inhibition at 10 µM: read-out: hAChE % Inhib. at 10 μM.

Experiment [3] addresses T5, human recombinant monoamine oxidase A (Homo sapiens, UniProt P21397).
T5 construct: purchased Sigma Aldrich; host or cells: baculovirus infected insect cells (microsomes)
T5 sequence (P21397 1-527): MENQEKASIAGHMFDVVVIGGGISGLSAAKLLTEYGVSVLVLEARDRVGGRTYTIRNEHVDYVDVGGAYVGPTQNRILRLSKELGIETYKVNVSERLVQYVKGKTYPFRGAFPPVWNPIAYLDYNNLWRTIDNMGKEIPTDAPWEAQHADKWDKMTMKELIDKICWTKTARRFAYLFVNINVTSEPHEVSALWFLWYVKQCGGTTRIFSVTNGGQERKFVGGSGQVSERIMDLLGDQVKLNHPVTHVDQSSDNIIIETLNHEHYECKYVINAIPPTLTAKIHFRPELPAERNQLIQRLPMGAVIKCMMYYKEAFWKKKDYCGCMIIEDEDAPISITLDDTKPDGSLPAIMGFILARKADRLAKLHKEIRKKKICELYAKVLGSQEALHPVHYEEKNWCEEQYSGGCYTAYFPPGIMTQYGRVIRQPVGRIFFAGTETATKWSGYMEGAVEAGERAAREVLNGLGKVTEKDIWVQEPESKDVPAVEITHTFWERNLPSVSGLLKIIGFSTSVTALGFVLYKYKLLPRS
As to the kind of experiment: Inhibition of monoamine oxidase A (kynuramine). In kind it is biochemical. The note with it: for IC50: read-out: hMAO A IC50; for inhibition at 10 µM: read-out: hMAO A % Inhib. at 10 μM.
Method: as §1, §2

Experiment [4] has as its target T2, Aβ40. As to conditions: cited from earlier work.

T1 sequence (P10636 other isoform, or with tags, fused parts or gaps): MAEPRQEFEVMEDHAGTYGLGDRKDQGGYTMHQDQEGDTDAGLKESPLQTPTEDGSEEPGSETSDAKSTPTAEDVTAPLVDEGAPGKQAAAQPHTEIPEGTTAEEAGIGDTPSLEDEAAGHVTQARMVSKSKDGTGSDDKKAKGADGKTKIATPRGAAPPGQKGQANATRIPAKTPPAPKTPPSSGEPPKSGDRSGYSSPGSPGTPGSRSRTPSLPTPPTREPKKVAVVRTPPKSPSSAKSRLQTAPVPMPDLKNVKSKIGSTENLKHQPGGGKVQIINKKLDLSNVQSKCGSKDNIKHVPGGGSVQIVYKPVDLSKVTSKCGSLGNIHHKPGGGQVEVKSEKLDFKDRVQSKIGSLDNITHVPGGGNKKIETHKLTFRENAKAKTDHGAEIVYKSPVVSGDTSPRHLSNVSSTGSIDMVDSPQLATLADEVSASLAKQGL
T2 sequence (P05067 672-711 limits assumed): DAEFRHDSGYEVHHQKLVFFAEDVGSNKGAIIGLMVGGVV
Method for human recombinant AChE: as §1

As for `O=C1Nc2ccccc2C1=NN=C1C(=O)Nc2ccccc21` [Compound 4], on tau protein, the inhibition at 10 µM was 17 ± 2%. Moreover, the inhibition at 100 µM at Aβ40 [1] amounted to 31 ± 3%.

As for `O=C1Nc2ccccc2C1=NNc1ccccc1` [Compound 5, isatin 3-phenylhydrazone], the IC50 came to 4.6 ± 0.7 µM at tau protein, 22 ± 2 µM against Aβ40 [1], 3.6 ± 0.7 µM in experiment [2] and 520 ± 40 nM in experiment [3]. Also, the inhibition at 10 µM at human recombinant AChE came out at 37 ± 1%. Also, the “selectivity for MAO A over MAO B” value in experiment [3] (MAO A over MAO B) amounted to 7 fold.

For the compound `O=C1Nc2ccccc2C1=NNc1cccc(OCc2ccccc2)c1` [Compound 6, 3-(2-(3-(Benzyloxy)phenyl)hydrazineylidene)indolin-2-one], the inhibition at 10 µM on tau protein came out at 14 ± 2%; in experiment [2], 22 ± 4%; in experiment [3] it was 23 ± 5%. Also, the inhibition at 100 µM on Aβ40 [1] worked out at 45 ± 6%. Moreover, the IC50 on human recombinant AChE (read-out: hAChE IC50) amounted to 4.2 ± 0.8 µM.

In the case of `COc1ccc2c(c1)C(=O)C(=O)N2CCc1ccccc1` [Compound 11], the 50% inhibitory concentration (IC50) was found to be 15 ± 1 µM at Aβ40 [1] and 2.7 ± 0.3 µM in experiment [2]. The inhibition at 10 µM at human recombinant AChE came out at 47 ± 5%; in experiment [3], 20 ± 4%.

With `COc1ccc2c(c1)C(=O)C(=O)N2CN1CCOCC1` [Compound 13, 5-Methoxy-1-(morpholinomethyl)indoline-2,3-dione], the inhibition at 100 µM at Aβ40 [1] stood at 23 ± 5%. In addition, the IC50 in experiment [2] was found to be 4.4 ± 0.1 µM. For the same compound, the inhibition at 10 µM on human recombinant AChE is 26 ± 1%; in experiment [3], 7 ± 2%.

For `COc1ccc2c(c1)C(=NNc1ccc(C(C)C)cc1)C(=O)N2CCN(C)C` [Compound 18, 1-(2-(Dimethylamino)ethyl)-3-(2-(4-isopropylphenyl)hydrazineylidene)-5-methoxyindolin-2-one], the IC50 against Aβ40 [1] was found to be 1.3 ± 0.1 µM. In addition, the inhibition at 10 µM was determined as 47 ± 2% in experiment [2], 23 ± 1% at human recombinant AChE and 31 ± 4% in experiment [3].

`CC(C)c1ccc(NN=C2C(=O)N(Cc3ccccc3)c3ccc(O)cc32)cc1` [Compound 19, 1-Benzyl-5-hydroxy-3-(2-(4-isopropylphenyl)hydrazineylidene)indolin-2-one] returned an IC50 on Aβ40 [1] of 1.6 ± 0.3 µM. Moreover, the inhibition at 10 µM in experiment [2] is 46 ± 5%; on human recombinant AChE, 31 ± 1%; in experiment [3], 18 ± 4%.

Turning to `O=C1Nc2ccccc2C1=NNc1cccc2ccccc12` [Compound 23, 3-(2-(Naphthalen-1-yl)hydrazono)indolin-2-one], the 50% inhibitory concentration (IC50) is 4.8 ± 0.5 µM against Aβ40 [1], 5.3 ± 0.3 µM in experiment [2] and 7100 ± 300 nM in experiment [3]. The inhibition at 10 µM at human recombinant AChE amounted to 40 ± 3%.

For `Clc1ccc(NN=Cc2c[nH]c3ccccc23)cc1` [Compound 32, 3-((2-(4-Chlorophenyl)hydrazono)methyl)-1H-indole], the IC50 at Aβ40 [1] was 8.4 ± 0.6 µM; in experiment [2] it was 0.23 ± 0.03 µM; in experiment [3], 340 ± 10 nM. Moreover, on human recombinant AChE, the inhibition at 10 µM amounted to 41 ± 5%.

In the case of `COc1ccc2[nH]cc(C=NNc3ccccn3)c2c1` [Compound 34, 5-Methoxy-3-((2-(pyridin-2-yl)hydrazineylidene)methyl)-1H-indole], the inhibition at 100 µM at Aβ40 [1] was 20 ± 2%.

In the case of `COc1ccc2[nH]cc(C=NNc3ccc4ccccc4n3)c2c1` [Compound 35, 2-(2-((5-Methoxy-1H-indol-3-yl)methylene)hydrazineyl)quinoline], the results for the IC50 (against Aβ40 [1]; in experiment [2]; in experiment [3]) were 12 ± 2 µM, 6.5 ± 0.6 µM and 3800 ± 300 nM, respectively. The inhibition at 10 µM on human recombinant AChE stood at 38 ± 2%.

As for `COc1ccc2[nH]cc(C=NNc3ccnc4cc(Cl)ccc34)c2c1` [Compound 36, 7-Chloro-4-(2-((5-methoxy-1H-indol-3-yl)methylene)hydrazineyl)quinoline], inhibition against Aβ40 [1] was half-maximal at 13 ± 1 µM (IC50).

Regarding `Clc1c(C=NNc2ccccc2)[nH]c2ccc(Br)cc12` [Compound 40, 5-Bromo-3-chloro-2-((2-phenylhydrazineylidene)methyl)-1H-indole], the IC50 against Aβ40 [1] turned out to be 25 ± 3 µM.

As for `CC(C)c1ccc(NN=Cc2[nH]c3ccc(Br)cc3c2Cl)cc1` [Compound 41, 5-Bromo-3-chloro-2-((2-(4-isopropylphenyl)hydrazineylidene)methyl)-1H-indole], on Aβ40 [1], the inhibition at 100 µM turned out to be 63 ± 6%.

Turning to `CC1(C)OC(=O)C(C=C2Nc3ccccc3C2=O)C(=O)O1` [Compound 44], at Aβ40 [1], the inhibition at 100 µM came out at 44 ± 1%.

In the case of `COc1ccc2[nH]cc(/C=N/NC(=O)c3ccc(F)cc3)c2c1` [Compound 45], the inhibition at 100 µM at Aβ40 [1] turned out to be 0%.

In turn, `O=C1Nc2ccc([N+](=O)[O-])cc2/C1=N/Nc1ccccc1` [Compound S22] displayed an inhibition at 10 µM against tau protein of 15 ± 3%. Moreover, the “Aβ40 Inhibition % at 100 μM” value at Aβ40 [4] (Table 5, symbol) is “-^c (No inhibition at 100 μM concentration)”. Besides, on Aβ40 [4] (supplement, training set, 100 µM), the “% inhib. @ 100 µM” value is -2±7%.

`COc1ccc2c(c1)/C(=N/Nc1ccccc1)C(=O)N2` [Compound S23] registered an IC50 against tau protein of 7.7 ± 1 µM. Moreover, the “Aβ40 Inhibition % at 100 μM” value on Aβ40 [4] (Table 5) is given as 52%.

Consider `COc1ccc2c(c1)/C(=N/Nc1ccc(OCc3ccccc3)cc1)C(=O)N2` [Compound S34], for which the inhibition at 10 µM against tau protein is 16 ± 2%. Further, the “Aβ40 Inhibition % at 100 μM” value at Aβ40 [4] (Table 5) is reported as 20%.

The compound `COc1ccc2c(c1)/C(=N/Nc1cccc(OCc3ccccc3)c1)C(=O)N2` [Compound S35] came in with a concentration for half-maximal inhibition (IC50) against tau protein of 10 ± 2 µM. Further, the “Aβ40 Inhibition % at 100 μM” value on Aβ40 [4] (Table 5) is recorded as 44%.

Broadly, the IC50 is the concentration that gives 50% inhibition.
